Measured values taken from US20040170653A1, “Tumour peptide antigen produced from human mdm2 proto-oncogene” (priority 2001, published 2004).
Like-named read-outs stand apart in the source and are kept apart here.

Key:
HLA-A2.1 = HLA-A2.1 (Homo sapiens, UniProt P04439, D140Y/D185E/D98H/E176V/E277Q/G131W/G231S/I119V/I121R/I166T/I218V/L300P/L318F/N151K/N90K/P208A/P217A/Q86G/Q94H/R138H/R169H/T345S); assay: Competition test: inhibition of A2.1 binding of peptide p53 264-272, read as p53-specific CTL lysis of loaded EA2 cells; details: for inhibition of the A2.1 binding of the competing peptide p53 264-272: EA2 cells with 0.01 μg p53 264-272, 4-hour test; for A2.1-binding activity (in words): competitive binding test
[1] = tested on: A2K^b- and CD8×A2K^b transgenic mice; assay: A2.1-restricted immunogenicity of synthetic peptides after immunization; cytotoxicity test of induced CTL on peptide-loaded T2A2K^b cells; assay type: in vivo, mouse; details: peptide immunization in IFA, in vitro stimulation, 4-hour cytotoxicity test
resting B cells = assay: CTL recognition of resting lymphohemopoietic cells, 6-hour cytotoxicity test; assay type: cell-based; details: cells loaded with peptide 10 μM
T2 cells = assay: Cytotoxicity test (51Cr release) of hdm2 81-88-specific CTL on peptide-loaded T2 target cells (peptide titration, peptide specificity); assay type: cell-based, human; details: for absolute maximal lysis: peptide titration
mature DC = assay: CTL recognition of activated mature dendritic cells, 6-hour cytotoxicity test; assay type: cell-based; details: cells loaded with peptide 10 μM
PBMC = assay: CTL recognition of resting lymphohemopoietic cells, 6-hour cytotoxicity test; assay type: cell-based; details: cells loaded with peptide 10 μM
[2] = tested on: tyrosinase-specific CTL clone IVSB; assay: CTL recognition of antigen-activated T cells, 6-hour cytotoxicity test; assay type: cell-based, human; details: cells loaded with peptide 10 μM
Method: FIG. 22: Absence of substantial recognition of antigen-activated T cells. CTL A2 81, CTL CD8×A2 K^b 81, allo-A2.1-reactive CTL and CTL CD8×A2 K^b Flu M1 were tested as effector cells under the E:T ratios indicated in a 6-hour cytotoxicity test against tyrosinase-specific CTL clone IVSB (●) and the same cells loaded with hdm2 81-88 peptide (10 μM) (▴). The target cells were treated with the anti-A2.1 monoclonal antibody PA2.1 as shown (∘).
An A2.1-positive CTL clone “IVSB” having specificity for the tyrosinase peptide 369-377 was produced and made available using technically customary methods.
The lytic reactivity of the effector cells against various target cells was checked in a ^51Cr release test (Theobald et al., 1995). T2 and T2A2 K^b cells were employed as target cells for peptide titration tests. 1-5 Mio target cells were labeled for 60-90 min with 150 μCi of Na (^51Cr) 04 (1 mCi/ml) (NEN Life Science, Belgium). […] The cells were then centrifuged off (1300 rpm, 5° C., 9 min), the supernatant (0.1 ml/well) was taken off and the ^51Cr release was measured using a gamma-“counter” (Canberra Packard, Dreieich). The percentage specific lysis (SL) was calculated according to the following formula: [formula] […]

EL4 cells (H-2^b) = assay: Cytotoxicity test of hdm2 81-88-specific CTL on peptide-loaded A2.1-negative EL4 cells (A2.1 restriction); assay type: cell-based, mouse
resting T cells = assay: CTL recognition of resting lymphohemopoietic cells, 6-hour cytotoxicity test; assay type: cell-based; details: cells loaded with peptide 10 μM

LLGDLFGV [hdm2 81-88, oligopeptide, amino acid positions 81 to 88 of the hdm2 proto-oncoprotein]
inhibition of the A2.1 binding of the competing peptide p53 264-272 (HLA-A2.1; 10 μg test peptide): 100%
A2.1-binding activity (in words) (HLA-A2.1): strongly binding
A2.1-restricted and peptide-specific CTL response [1]: demonstrated
CTL recognition after loading with exogenous peptide (resting B cells): reconstituted
EC50 (T2 cells; CTL line A2 81, E:T 10:1, 4-hour test, read-out: peptide concentration at half-maximal lysis of the target cells): 0.069 nM
EC50 (T2 cells; CTL line CD8×A2K^b 81, E:T 10:1, 4-hour test, read-out: peptide concentration at half-maximal lytic activity): 0.036 nM
lysis of peptide-loaded T2 cells by both hdm2 81-88-specific CTL lines (T2 cells; CTL lines A2 81 and CD8×A2 K^b 81, 4-hour test): lyzed efficiently
EC50 (T2 cells; I° CTL A2 81, 6-hour test, read-out: peptide concentration at half-maximal lysis of the target cells): 0.95 nM
absolute maximal lysis (T2 cells; I° CTL A2 81): 62%
EC50 (T2 cells; I° CTL CD8×A2 K^b 81, 6-hour test, read-out: peptide concentration at half-maximal lysis of the target cells): 0.2 nM
absolute maximal lysis (T2 cells; I° CTL CD8×A2 K^b 81): 100%
CTL lysis after loading with exogenous peptide (mature DC): reconstituted
CTL recognition after loading with exogenous peptide (PBMC): reconstituted
CTL lysis after loading with exogenous peptide [2]: reconstitute
recognition of peptide-loaded EL4 cells by CTL induced by hdm2 81-88 (EL4 cells (H-2^b); CTL from immunized A2K^b- or CD8×A2K^b-transgenic mice, 2 μg peptide): not recognized
lytic activity of hdm2 81-88-reactive CTL lines on peptide-loaded EL4 cells (EL4 cells (H-2^b); CTL lines A2 81 and CD8×A2 K^b 81): no lytic activity at all
CTL recognition after loading with exogenous peptide (resting T cells): reconstituted

hdm2 48-57: synthetic hdm2 peptide, residues 48-57 (YTMKEVLFYL; UniProt Q00987 48-57, looked up, fragment)
inhibition of the A2.1 binding of the competing peptide p53 264-272 (HLA-A2.1; 10 μg test peptide): 100%

tyrosinase 369-377: A2.1-binding peptide tyrosinase 369-377, positive control [reference compound]
inhibition of the A2.1 binding of the competing peptide p53 264-272 (HLA-A2.1; 3 μg test peptide): 100%
inhibition of the A2.1 binding of the competing peptide p53 264-272 (HLA-A2.1; 10 μg test peptide): 100%

hdm2 101-110: intermediately binding synthetic hdm2 peptide, residues 101-110 (TMIYRNLVVV; UniProt Q00987 101-110, looked up, fragment)
A2.1-binding activity (in words) (HLA-A2.1): intermediately binding
A2.1-restricted and peptide-specific CTL response [1]: demonstrated

hdm2 33-41: synthetic hdm2 peptide, residues 33-41 (LLLKLLKSV; UniProt Q00987 33-41, looked up, fragment)
inhibition of the A2.1 binding of the competing peptide p53 264-272 (HLA-A2.1; 10 μg test peptide): 100%
A2.1-binding activity (in words) (HLA-A2.1): strongly binding
A2.1-restricted and peptide-specific CTL response [1]: demonstrated

hdm2 80-88: synthetic hdm2 peptide, residues 80-88; contaminated with hdm2 81-88 (DLLGDLFGV; UniProt Q00987 80-88, looked up, fragment)
inhibition of the A2.1 binding of the competing peptide p53 264-272 (HLA-A2.1; 10 μg test peptide): 100%
A2.1-binding activity (in words) (HLA-A2.1): strongly binding
A2.1-restricted and peptide-specific CTL response [1]: demonstrated
recognition of HPLC-purified peptide by hdm2 81-88-specific CTL (T2 cells; HPLC fraction 23, T2 cells, CTL CD8×A2 K^b 81, E:T 20:1): cross-reactivity
